Counter-ions that a name gives are not always drawn. Like-named read-outs stand apart in the source and are kept apart here.
How the values were obtained:
Aβ42 [1] = experiment: γ-secretase-modulating activity, Method 2: Aβ42 Alphalisa in supernatant of SKNBE2 cells carrying APP 695-wild type (Table 3b); assay type: cell-based; details: overnight
In short: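 Aβ42 in the supernatant was quantified by AlphaLISA sandwich (JRF/cAβ42/26 with JRF/AβN/25). Cells were wild-type APP695 SKNBE2, exposed to compound overnight at 37° C., 5% CO2. Data were normalised to untreated maximum and fitted with a four-parameter curve to give IC50.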

Aβtotal [2] = experiment: γ-secretase-modulating activity, Method 2: Aβtotal Alphalisa in supernatant of SKNBE2 cells carrying APP 695-wild type (Table 3b); assay type: cell-based; details: overnight, read-out: IC50 Aβtot
In short: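 Secreted Aβtotal was quantified by AlphaLISA pairing an N-terminal antibody (JRF/AβN/25) with biotinylated mid-region 4G8. Wild-type APP 695 SKNBE2 cells received serially varied compound overnight at 37 °C; IC50 came from a 4-parameter nonlinear regression of percent of control against log dose.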

Aβtotal [3] = experiment: In vivo efficacy, Method 2: brain soluble Aβtotal lowering 4 h after a single oral dose, ELISA (Table 4b); design: species or system mouse; details: dose 30 mg/kg oral dosing
From the text: (§1) To determine whether acute administration of an Aβ42 lowering agent would reduce Aβ42 levels in vivo, non-transgenic rodents, e.g. mice or rats were used. Animals treated with the Aβ42 lowering agent were examined and compared to those untreated or treated with vehicle and brain levels of soluble Aβ42 and total Aβ were quantitated by standard techniques, for example, using ELISA. Treatment periods varied from hours (h) to days and were adjusted based on the results of the Aβ42 lowering once a time course of onset of effect could be established.
(§2) A typical protocol for measuring Aβ42 lowering in vivo is shown but it is only one of many variations that could be used to optimize the levels of detectable Aβ. For example, Aβ42 lowering compounds were formulated in 20% of Captisol® (a sulfobutyl ether of β-cyclodextrin) in water or 20% hydroxypropyl β cyclodextrin. The Aβ42 lowering agents were administered as a single oral dose or by any acceptable route of administration to overnight fasted animals. After 4 h, the animals were sacrificed and Aβ42 levels were analysed.
(§3) Blood was collected by decapitation and exsanguinations in EDTA-treated collection tubes. Blood was centrifuged at 1900 g for 10 minutes (min) at 4° C. and the plasma recovered and flash frozen for later analysis. The brain was removed from the cranium and hindbrain. The cerebellum was removed and the left and right hemisphere were separated. The left hemisphere was stored at −18° C. for quantitative analysis of test compound levels. The right hemisphere was rinsed with phosphate-buffered saline (PBS) buffer and immediately frozen on dry ice and stored at −80° C. until homogenization for biochemical assays.
(§4) Mouse brains from non-transgenic animals were resuspended in 8 volumes of 0.4% DEA (diethylamine)/50 mM NaCl containing protease inhibitors (Roche-11873580001 or 04693159001) per gram of tissue, e.g. for 0.158 g brain, add 1.264 ml of 0.4% DEA. All samples were homogenized in the FastPrep-24 system (MP Biomedicals) using lysing matrix D (MPBio #6913-100) at 6 m/s for 20 seconds. Homogenates were centrifuged at 221.300×g for 50 min. The resulting high speed supernatants were then transferred to fresh eppendorf tubes. Nine parts of supernatant were neutralized with 1 part 0.5 M Tris-HCl pH 6.8 and used to quantify Aβtotal and Aβ42.
(§5) To quantify the amount of Aβtotal and Aβ42 in the soluble fraction of the brain homogenates, Enzyme-Linked-Immunosorbent-Assays were used. Briefly, the standards (a dilution of synthetic Aβ1-40 and Aβ1-42, Bachem) were prepared in 1.5 ml Eppendorf tube in Ultraculture, with final concentrations ranging from 10000 to 0.3 pg/ml. The samples and standards were co-incubated with HRPO-labelled N-terminal antibody for Aβ42 detection and with the biotinylated mid-domain antibody 4G8 for Aβtotal detection. 50 μl of conjugate/sample or conjugate/standards mixtures were then added to the antibody-coated plate (the capture antibodies selectively recognize the C-terminal end of Aβ42, antibody JRF/cAβ42/26, for Aβ42 detection and the N-terminus of Aβ, antibody JRF/rAβ/2, for Aβtotal detection). The plate was allowed to incubate overnight at 4° C. in order to allow formation of the antibody-amyloid complex. Following this incubation and subsequent wash steps the ELISA for Aβ42 quantification was finished by addition of Quanta Blu fluorogenic peroxidase substrate according to the manufacturer's instructions (Pierce Corp., Rockford, Ill.). A reading was performed after 10 to 15 min (excitation 320/emission 420).
For Aβtotal detection, a Streptavidine-Peroxidase-Conjugate was added, followed 60 min later by an additional wash step and addition of Quanta Blu fluorogenic peroxidase substrate according to the manufacturer's instructions (Pierce Corp., Rockford, Ill.). A reading was performed after 10 to 15 min (excitation 320 nm/emission 420 nm).
(§6) The results are shown in Table 4b (dose 30 mg/kg oral dosing): […]

Aβ42 [4] = experiment: In vivo efficacy, Method 2: brain soluble Aβ42 lowering 4 h after a single oral dose, ELISA (Table 4b); design: species or system mouse; details: dose 30 mg/kg oral dosing
From the text: as §1, §2, §3, §4, §5
In this model at least 20% Aβ42 lowering compared to untreated animals would be advantageous.
as §6

SMILES	melting point [°C]	IC50 (Aβ42 [1]; Homo sapiens) [nM]	IC50 (Aβtotal [2]; Homo sapiens) [nM]	IC50 (Aβ42 [1]) [nM]	Aβtotal (% Ctrl) _Mean (Aβtotal [3]) [% Ctrl]	IC50 (Aβtotal [2]) [nM]	Aβ42 (% Ctrl) _Mean (Aβ42 [4]) [% Ctrl]	Aβtotal (% Ctrl) _Mean (Aβtotal [3]; 30 mg/kg) [% Ctrl]	Aβ42 (% Ctrl) _Mean (Aβ42 [4]; 30 mg/kg) [% Ctrl]
COc1cc(-c2nc(Sc3cccc(C(F)(F)F)c3)n(C)n2)ccc1-n1cnc(C)c1 (as salt: HCl) (hydrate or solvate) [Compound 249]	78.4	–	–	–	–	–	–	–	–
COc1cc(-c2nc(-c3ccccc3Cl)n(C)n2)ccc1-n1cnc(C)c1 [Compound 2]	149.3	468	> 10000	–	–	–	–	–	–
COc1cc(-c2nc3n(n2)CCCC3c2ccccc2C(F)(F)F)ccc1-n1cnc(C)c1 (stereo not shown) [Compound 10]	218	25	8320	–	–	–	–	–	–
COc1cc(-c2nc3n(n2)CCCN3c2ccccc2C(F)(F)F)ccc1-n1cnc(C)c1 [Compound 18]	211.6	76	> 10000	–	–	–	–	–	–
COc1cc(-c2nc(-c3ccc(-n4cnc(C)c4)c(OC)c3)n[nH]2)ccc1Cl [Compound 20]	262.6	257	> 10000	–	–	–	–	–	–
COc1cc(-c2nc(C(=O)c3ccc(F)cc3)n(C)n2)ccc1-n1cnc(C)c1 [Compound 21]	145.3	6920	> 10000	–	–	–	–	–	–
COc1cc(-c2nc(-c3ccccc3Cl)n(C(C)C)n2)ccc1-n1cnc(C)c1 [Compound 66]	159	562	> 10000	–	–	–	–	–	–
COc1cc(-c2nc(-c3cc(F)c(F)c(F)c3)n(C(C)C)n2)ccc1-n1cnc(C)c1 [Compound 84]	122.23	316	> 10000	–	–	–	–	–	–
COc1cc(-c2nc(Nc3ccccc3C)n(C)n2)ccc1-n1cnc(C)c1 [Compound 97]	159.4	49	> 10000	–	–	–	–	–	–
COc1cc(-c2nc(Nc3ccc(F)cc3C)n(C)n2)ccc1-n1cnc(C)c1 [Compound 130]	189.7	60	> 10000	–	–	–	–	–	–
COc1nc(-c2nc(Nc3cc(C(F)(F)F)ccc3F)n(C)n2)ccc1-n1cnc(C)c1 [Compound 154]	230.1	17	> 10000	–	–	–	–	–	–
COc1cc(-c2nc(Nc3ccccc3C(F)(F)F)n(C)n2)ccc1-n1cnc(C)c1 [Compound 157]	159.3	63	> 15000	–	–	–	–	–	–
COc1nc(-c2nc3n(n2)CCC[C@H]3c2ccccc2C(F)(F)F)ccc1-n1cnc(C)c1 [Compound 263]	–	–	–	29	12	> 10000	62	–	–
COc1cc(-c2nc3n(n2)CCCC3c2cc(C(F)(F)F)ccc2C)ccc1-n1cnc(C)c1 (stereo not shown) [Compound 264]	–	–	–	15	8	> 10000	49	–	–
COc1cc(-c2nc3n(n2)CCCC3c2cc(OC(F)(F)F)ccc2F)ccc1-n1cnc(C)c1 (stereo not shown) [Compound 265]	–	–	–	19	22	> 10000	55	–	–
COc1nc(-c2nc(Nc3cccc(F)c3Cl)n(C)n2)ccc1-n1cnc(C)c1 [Compound 302]	–	–	–	71	−3	> 10000	31	–	–
COc1cc(-c2nc(Nc3cc(Br)ccc3F)n(C)n2)ccc1-n1cnc(C)c1 [Compound 303]	–	–	–	40	23	> 10000	33	–	–
COc1cc(-c2nc(Nc3cccc(F)c3C)n(C)n2)ccc1-n1cnc(C)c1 [Compound 304]	–	–	–	42	11	> 10000	48	–	–
COc1cc(-c2nc3n(n2)CCOC3c2ccccc2C(F)(F)F)ccc1-n1cnc(C)c1 (stereo not shown) [Compound 306]	–	–	–	71	–	> 10000	–	−2	22
COc1cc(-c2nc(Nc3cc(OC(C)C)ccc3F)n(C)n2)ccc1-n1cnc(C)c1 [Compound 307]	–	–	–	8	−2	> 10000	19	–	–
COc1cc(-c2nc(Nc3ccccc3OC(F)F)n(C)n2)ccc1-n1cnc(C)c1 [Compound 310]	–	–	–	44	20	> 10000	45	–	–
COc1cc(-c2nc3n(n2)CCC[C@H]3c2ccc(F)cc2C)ccc1-n1cnc(C)c1.Cl [Compound 315]	–	–	–	29	10	> 10000	49	–	–
COc1c(-n2cnc(C)c2)ccc(-c2nc(Nc3cc(C(F)(F)F)ccc3F)n(C)n2)c1F [Compound 320]	–	–	–	45	8	> 10000	23	–	–
Cc1cn(-c2ccc(-c3nc(Nc4cc(C(F)(F)F)ccc4F)n(C)n3)cc2C#N)cn1 [Compound 322]	–	–	–	36	−4	> 15000	−5	–	–
COc1nc(-c2nc(N(C)c3cc(C(F)(F)F)ccc3F)n(C)n2)ccc1-n1cnc(C)c1 [Compound 337]	–	–	–	263	3	> 10000	30	–	–
COc1nc(-c2nc3n(n2)CCCC3c2cc(C(F)(F)F)ccc2C)ccc1-n1cnc(C)c1 (stereo not shown) [Compound 343]	–	–	–	15	18	> 10000	64	–	–
COc1cc(C(F)(F)F)cc(Nc2nc(-c3ccc(-n4cnc(C)c4)c(OC)n3)nn2C)c1F [Compound 353]	–	–	–	17	2	> 10000	63	–	–
